Reference: patent US5491072A, “N-alkylacridan carboxyl derivatives useful for chemiluminescent detection” (Lumigen, Inc., priority 1993, dated 1996)

Assays:
horseradish peroxidase [1] = target: T1, horseradish peroxidase (Armoracia rusticana, UniProt P00433); assay: Sensitivity of detection of horseradish peroxidase using 1b and sodium perborate; format: biochemical; settings: 1b 46 μmol/L, 0.2 mmol/L perborate, 37° C.; for linear assay range for HRP: pH 8.0 tris
T1 sequence (P00433 31-338 limits assumed): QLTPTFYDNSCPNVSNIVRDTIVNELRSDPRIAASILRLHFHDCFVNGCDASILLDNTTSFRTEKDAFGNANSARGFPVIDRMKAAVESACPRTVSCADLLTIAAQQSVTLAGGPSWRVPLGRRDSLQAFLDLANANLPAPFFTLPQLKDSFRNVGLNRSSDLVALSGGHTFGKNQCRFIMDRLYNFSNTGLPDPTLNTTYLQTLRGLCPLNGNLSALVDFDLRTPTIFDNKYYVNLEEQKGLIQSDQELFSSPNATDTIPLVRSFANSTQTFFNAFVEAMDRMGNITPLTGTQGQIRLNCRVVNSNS
Procedure: (§1) The experiments in the following examples were performed using a Turner Designs TD-20e luminometer fitted with neutral density filter for light attenuation. Data collection, analysis and display were software controlled. Constant temperature was maintained by means of an external circulating water bath connected to the luminometer.
A matrix optimization experiment was done using 1b (0.1 mM-0.05 mM), sodium perborate (3 mM-0.2 mM) and HRP (1.4×10^-18 mol-1.4×10^-14 mol) at 37° C. The final assay reagent consists of 2.25×10^-3 M p-iodophenol, 0.5% Tween 20 and 1×10^-3 M EDTA in pH 8.0, 0.1M tris buffer. The best compromise between sensitivity and dynamic range was obtained using 1b (46 μmol/L) and 0.2 mmol/L perborate. These conditions gave a linear assay for HRP in the range of […] to 1.4×10^-14 mol (detection limit S/B=1.4 after 5 min with 1.4×10^-18 mol) or in the range of 1.4×10^-18 to 1.4×10^-15 mol (detection limit S/B-1.5 after 15 min with 1.4×10^-18 mol).
FIGS. 3A to 3C show the correlation of corrected signal to background vs. amount of HRP using solutions containing 0.05 mM 1b, 0.5% Tween 20, 1×10^-3 M EDTA in pH 8.0, 0.1M tris buffer.

horseradish peroxidase [2] = target: T1, horseradish peroxidase; assay: Comparison of compounds 1a-e at pH 8.9, time course and total intensity of chemiluminescence; format: biochemical; settings: 0.01 mM acridan, 0.1M phosphate pH 8.9, 6.2 mM H2O2, 2.25 mM p-iodophenol, 1×10^-13 mol HRP
Procedure: as §1
A 200 μL volume of a formulation containing 0.01 mM acridan compound 1a-e in 0.1M phosphate buffer, pH 8.9, […] (6.2 mM) H2 O2, 2.25 mM p-iodophenol, 0.5% (w/w) Tween 20 and 1 mM EDTA was reacted with 1×10^-13 mol of horseradish peroxidase. […] Compared below are the peak light intensity (Imax) in relative light units (RLU), the time to maximum light intensity (tmax) and total light output.

HRP = target: T2, HRP (Armoracia rusticana, UniProt P00433); assay: Comparison of detection of HRP with luminol reagent and 1b reagent; format: biochemical, horseradish; settings: corrected signal-to-background at 5 min, 37° C., comparing log (S-B)/B=0
T2 sequence (P00433 31-338 limits assumed): T1 sequence (P00433 31-338 limits assumed)
Procedure: as §1
Forty μL of a solution containing 1b (0.05 mM), p-iodophenol (2.25 mM), H2 O2 (0.2 mM), Tween 20 (0.5%), EDTA (1 mM) in 0.1M tris, pH 8.0 and forty μL of the commercial reagent (Amersham, Arlington Heights, Ill.) were incubated at 37° C. and reacted with varying amounts of HRP. FIG. 6 compares the corrected signal-to-background ratios at 5 min. […] Measuring light intensity at 15 min provides an additional reduction in detection limit with the reagent containing 1b, while the luminol reagent results are unchanged.

horseradish peroxidase [3] = target: T1, horseradish peroxidase; assay: Effect of pH and buffer salt on chemiluminescence of 1b; format: biochemical; settings: 0.1 mM 1b, 0.8 mM H2O2, 2.25 mM p-iodophenol, 1.4×10^-15 mol HRP, 30 min, room temperature
Procedure: as §1
The present invention may be practiced over the pH range of at least 7-9 and functions with different buffering salts. Tubes containing 200 μL of a formulation containing 0.1 mM 1b in the specified buffer, 0.8 mM H2 O2, 2.25 mM p-iodophenol, 0.5% (w/w) Tween 20 and 1 mM EDTA were placed in the luminometer at room temperature. Horseradish peroxidase (1.4×10^-15 mol) was injected and the chemiluminescence intensity determined at 30 min. The time course of the light emission was similar in all four solutions. The optimum pH can vary with changes in the concentrations of the reactants.

## CN1c2ccccc2C(C(=O)Oc2ccc(O)cc2)c2ccccc21 [Compound 1b, 4'-Hydroxyphenyl 10-methylacridan-9-carboxylate]
Horseradish peroxidase [1]; after 5 min
  linear assay range for HRP: 4e-19 to 1.4e-14 mol
Horseradish peroxidase [1]; after 15 min
  linear assay range for HRP: 1.4e-18 to 1.4e-15 mol
Horseradish peroxidase [1]; after 5 min with 1.4×10^-18 mol HRP
  detection limit S/B: 1.4
Horseradish peroxidase [2]; 0.5% Tween 20, 1 mM EDTA
  I max (RLU), peak light intensity: 2047 RLU
Horseradish peroxidase [2]
  I total (RLU), total light output: 2 × 10^6 RLU
  t max (min), time to maximum light intensity: 4.2 min
HRP
  sensitivity of detection of HRP compared to the luminol reagent: greater sensitivity of detection
Horseradish peroxidase [3]; 0.1 M phosphate buffer, pH 8.9
  S/B: 306
Horseradish peroxidase [3]; 0.1 M tris buffer, pH 8.0
  S/B: 1400
Horseradish peroxidase [3]; 0.1 M tris buffer, pH 8.5
  S/B: 600
Horseradish peroxidase [3]; 0.1 M tris buffer, pH 8.9
  S/B: 160
